According to patent US20210228523A1, “MODULATORS OF SESTRIN-GATOR2 INTERACTION AND USES THEREOF” (Navitor Pharmaceuticals, Inc., priority 2017, published 2021):

System: Male Sprague Dawley rats
Assay: Forced swimming test (FST)
Type: in vivo, rat
Settings: for FST time spent immobile / decrease in FST time spent immobile vs Sal / decrease in FST time spent immobile vs Veh: Example G; for decrease in FST time spent immobile vs Sal / decrease in FST time spent immobile vs Veh: p<0.05
Procedure: Study Design. Twenty (20) male rats weighing between 175 and 200 g were randomized into 3 study groups (n=6-7/group), following a 5-day acclimation period. All rats were surgically implanted with bilateral IT cannulas in the PFC 2 weeks prior to dosing. […] Thirty minutes following the intrathecal infusions, either NV-5138 vehicle (Veh-NV, 0.5% methylcellulose/0.1% Tween-80) or NV-5138 (160 mg/kg) was administered by oral gavage. Each treatment group was assessed at the designated time following oral dosing in FST 24 hrs (day 1) LMA 48 hrs (day 2) and the NSFT 72 hrs (day 3 following a 20 hr period of fasting). LMA was measured to rule out overall changes in generally locomotor activity. The study design is presented in Table 11 with timeline of surgical procedures, test article administration and behavioral tests is provided in FIG. 20
Preparation of Test Articles. Rapamycin (Cell Signaling; #9904) was prepared in a solution of 10% DMSO (Veh-R) to a final concentration of 10 μM. R or Veh-R was administered bilaterally (0.005 nmol/0.5 μL per side) into the medial PFC via IT infusion 30 min prior to treatment with NV-5138 or Veh-NV by oral gavage. NV-5138 (lot #07) was prepared by dissolving in Veh (0.5% methylcellulose/0.1% Tween-80) at a concentration of 50 mg/mL. The dosing volume based on the weight of the animal (3.2 mL/kg) was administered by oral gavage to study animals in Groups 2 and 3.
Surgical Procedure and Administration of Rapamycin. Rats were steriotactically implanted with a guide cannula (22GA) into the medial PFC (coordinates from bregma: +3.2 AP, ±1.0 ML, -3.5 DV from dura). Surgical procedures were carried out under the anesthesia of Nembutal (i.p. 55 mg/kg). Postoperative care consisted in peri-surgical administration of carprofen (5 mg/kg) and topical triple antibiotic. After a 2-week recovery period, R (0.01 nmol in 1 μL for PFC infusion) or Veh-R was delivered at the rate of 0.25 μL/min with an injection cannula (26GA) protruding 0.5 mm beyond the guide cannula 30 min before oral administration of NV-5138 or Veh-NV.
Study Design. Forty-eight (48) male rats weighing between 175 and 200 g were randomized into 6 study groups (n=8/group), following a 5-day acclimation period. A single dose of all test articles was administered on day 0 and the behavioral tests were performed 3, 7 and 10 days later. Groups 1 and 2 were dosed on day 0 with NV-5138 (160 mg/kg by oral gavage) and Ket (10 mg/kg by i.p. injection), respectively and subjected to a FST on day 3. The rats in Group 3 and 4 received a single dose of the NV-5138 vehicle (Veh) or NV-5138 (160 mg/kg), respectively, by oral gavage on day 0. The rats in Group 5 and 6 received a single dose of the Ket vehicle (Sal) or Ket (10 mg/kg), respectively, by i.p. injection on day 0. The rats in groups 3-6 were subjected to a FST on day 7 and a NSFT on day 10. All rats in groups 3-6 were fasted the night before for 20 hours the NSFT.
Study Design. Twenty-four (24) male Sprague Dawley rats weighing between 175 and 200 g were randomized into 4 study groups (n=6/group), following a 5-day acclimation period. On study day minus 1 rats were subjected to a pre-swim. Beginning on study day 0, rats in Groups 2 received a dose of Ket (10 mg/kg) on alternate days (day 0, 2, 4, and 6) each by i.p. injection. The rats in Groups 1 received a daily dose of Veh by oral gavage for 7 days (days 0 to 6). The rats in Groups 3 and 4 received a daily dose of NV-5138 (40 or 80 mg/kg) for 7 days (days 0 to 6) each by oral gavage. All rats were subjected to the FST on day 7, 24 hrs after last dosing. On day 8, 48 hrs after last dosing, the LMA of all rats was measured in an open field. Rats were then fasted for 20 hrs and subjected to the NSFT on day 9 (72 hrs post-last dose).
Preparation of Test Articles. Ket (Sigma, cat #K1884) was dissolved in Sal at a concentration of 10 mg/mL. Injection volumes (i.p) of 1 mL/kg of Ket were administered to Group 2. […]

[1] = Ket 10 mg/kg i.p. single dose, 3 days after dose
[2] = Ket 10 mg/kg i.p. single dose, 7 days after dose
[3] = NV-5138 160 mg/kg oral single dose, 3 days after dose
[4] = NV-5138 160 mg/kg oral single dose, 7 days after dose

SMILES | FST time spent immobile [1] [s] | decrease in FST time spent immobile vs Sal [1] [%] | FST time spent immobile [2] [s] | decrease in FST time spent immobile vs Sal [2] [%] | FST immobility time (Example F, Veh-R IT infusion then NV-5138 160 mg/kg oral, 24 hrs after oral dosing) [s] | decrease in FST immobility time vs Veh-R/Veh-NV (Example F, Veh-R IT infusion then NV-5138 160 mg/kg oral, 24 hrs, p<0.0001) [%] | FST immobility time, R/NV-5138 vs Veh-R/Veh-NV (Example F, rapamycin (R, 0.01 nmol) IT infusion into PFC 30 min before NV-5138 160 mg/kg oral, 24 hrs) | FST time spent immobile [3] [s] | decrease in FST time spent immobile vs Veh [3] [%] | FST time spent immobile [4] [s] | decrease in FST time spent immobile vs Veh [4] [%] | FST (Example I, NV-5138 80 mg/kg oral daily for 7 days, day 7, 24 hrs after last dosing)
CNC1(c2ccccc2Cl)CCCCC1=O (stereo not drawn) [Ket, ketamine, reference compound] | 95.5 ± 7.8 | 31 | 95.0 ± 11.1 | 31 |  |  |  |  |  |  |  | 
CC(C)(C[C@H](N)C(=O)O)C(F)F [NV-5138] |  |  |  |  | 144 ± 15 | 46 | lack of significant effect on immobility time | 87.9 ± 9.0 | 39 | 96.0 ± 11.3 | 34 | Significant effects
